Results published in US20040115706A1, “High-throughput methods for identifying quadruplex forming nucleic acids and modulators thereof” (priority 2002, published 2004).

Legend:
Type in all cases: binding
[1] = system: ds DNA pGL3; assay: EB competition with NMM or TMPyP4 for ds DNA; conditions: 6.5 μg/μl pGL3; presence or absence of EB; FIG. 4C
Experimental: Next, the effect of EB competition with NMM or TMPyP4 for ds DNA was assessed. The assay was carried out as described in the previous paragraph, with 6.5 μg/μl pGL3, and the results were graphically compiled in FIG. 4C.
pGL3 was purchased from Promega, Madison, Wis. pGL3/myc included the nuclease hypersensitive element (NHE) MYC8 fragment from the proximal region of human c-MYC. pGL3/myc was constructed by cloning the MYC8 fragment from human genomic DNA (Promega, Madison, Wis.) and inserting that fragment into the multiple cloning site of the pGL3 vector via Nhe I and Bgl II digestion and ligation. The MYC8 fragment (840 bp) was cloned from human genomic DNA using two primer oligonucleotides. The sense strand primer oligonucleotide for the c-MYC regulatory region had the nucleotide sequence 5′-[…]-3′ (SEQ ID NO: 36; Nhe I site is underlined), which corresponded to site 1993 in the sense strand GenBank sequence. The antisense primer had the nucleotide sequence 5′-[…]-3′ (SEQ ID NO: 37; Bgl II site is underlined), which corresponded to site 2833 in the sense strand GenBank sequence. The Genbank sequence was the Homo sapiens MYC gene, c-myc proto-oncogene and ORF1, Length=10996 (http address: www.ncbi.nlm.nih.gov/entrez/query.fcgi?cmd=Retrieve&db=nucleotide&list_uids=188965&dopt=GenBank). The construct was confirmed by sequencing.

[2] = system: ds DNAs pGL3E or pGL3E/myc; assay: Specificity of signal molecules for double-stranded DNA; conditions: 3 μM NMM (FIG. 4A) or 3 μM EB (FIG. 4B)
Experimental: (§1) The specificity of signal molecules NMM and ethidium bromide was assessed with respect to single-stranded (ss) DNA and double-stranded (ds) DNA. Fluorescence was plotted as a function of the concentration of ss DNA QB-1 or ds DNAs pGL3E or pGL3E/myc, under conditions of 3 μM NMM (FIG. 4A) or 3 μM EB (FIG. 4B). Fluorescence of NMM was measured as described in Example 1. Fluorescence of EB was measured at an excitation wavelength of 485 nm and an emission wavelength 590 nm using a FluoStar 2000 fluorometer (BMG Labtechnologies, Durham, N.C.). Ethidium bromide (EB) was obtained from Calbiochem, San Diego, Calif.
pGL3 was purchased from Promega, Madison, Wis. pGL3/myc included the nuclease hypersensitive element (NHE) MYC8 fragment from the proximal region of human c-MYC. pGL3/myc was constructed by cloning the MYC8 fragment from human genomic DNA (Promega, Madison, Wis.) and inserting that fragment into the multiple cloning site of the pGL3 vector via Nhe I and Bgl II digestion and ligation. The MYC8 fragment (840 bp) was cloned from human genomic DNA using two primer oligonucleotides. The sense strand primer oligonucleotide for the c-MYC regulatory region had the nucleotide sequence 5′-[…]-3′ (SEQ ID NO: 36; Nhe I site is underlined), which corresponded to site 1993 in the sense strand GenBank sequence. […]

[3] = system: non-quadruplex nucleic acid QB-2; assay: Signal molecule fluorescence assay with nucleic acid not capable of forming a quadruplex; conditions: 3 μM signal molecule; excitation 420 nm, emission 660 nm; FIG. 2A/2B
Experimental: (§2) A typical assay was carried out in 100 μl of 20 mM HEPES buffer, pH 7.0, 140 mM NaCl, and 100 mM KCl. Fifty μl of quadruplex nucleic acid or a nucleic acid not capable of forming a quadruplex were added in 96-well plate. 50 μl of signal molecule was then added for a final concentration of 3 μM. N-methylmesoporphyrin IX (NMM) and meso-tetrakis(N-methyl-4-pyridyl)porphine (TMPyP4) were tested as signal molecules. Fluorescence was measured at an excitation wavelength of 420 nm and an emission wavelength of 660 nm for each of these signal molecules using a FluoStar 2000 fluorometer (BMG Labtechnologies, Durham, N.C.). NMM and TMPyP4 were obtained from Frontier Scientific Inc, Logan, Utah. Fluorescence was plotted as a function of concentration of nucleic acid added to the system at a constant 3 μM concentration of NMM (FIG. 2A) or TMPyP4 (FIG. 2B).

[4] = system: ss DNA QB-1; assay: Specificity of signal molecules for single-stranded DNA; conditions: 3 μM NMM (FIG. 4A) or 3 μM EB (FIG. 4B)
Experimental: as §1

[5] = system: quadruplex nucleic acid QB-1; assay: Signal molecule fluorescence assay with quadruplex nucleic acid; conditions: for fluorescent signal / interaction with quadruplex nucleic acid QB-1: 3 μM signal molecule, excitation 420 nm, emission 660 nm, FIG. 2A/2B
Experimental: as §2, with “Fifty” for “A typical assay was carried out in 100 μl of 20 mM HEPES buffer, pH 7.0, 140 mM NaCl, and 100 mM KCl. Fifty”

[6] = Identification of quadruplex forming nucleic acids by probing with NMM; conditions: for interaction with NMM (quadruplex forming profile): 3 μM NMM, FIG. 2E; for capability of forming a quadruplex structure: 0.1 to 10 μM test nucleic acid probed with 3 μM NMM, FIG. 2C
Experimental: as §2
In this study, several oligonucleotides were analyzed to determine which of them were capable of forming quadruplex structures. The oligonucleotides in Table 2 were synthesized by Applied Biosystems (Foster City, Calif.).
FIG. 2E depicts quadruplex forming profiles for oligonucleotides QB-1 and QB-11 to QB-25.

[7] = system: quadruplex nucleic acid QB-1; assay: Competition of test molecules with NMM for quadruplex nucleic acid QB-1; conditions: QB-1 5 μM, NMM 3 μM; FIG. 3
Experimental: Test molecules were mixed with the quadruplex nucleic acid QB-1 in a 96-well plate and fluorescence backgrounds were monitored under the conditions specified in Example 1. NMM was then added to wells in the 96-well plate to a final concentration of 3 μM. Fluorescence of NMM was measured at an excitation wavelength of 420 nm and an emission wavelength of 660 nm using a FluoStar 2000 fluorometer (BMG Labtechnologies, Durham, N.C.). Maximum fluorescent signals for NMM were assessed in the absence of the test molecules. Fluorescence was plotted as a function of the concentration of three test molecules with constant concentrations of QB-1 (5 μM) and NMM (3 μM)(FIG. 3). The test compounds were telomestatin, QQ28, and serinodisaphyrin (see, e.g., Shin-ya et al., J. Am. Chem. Soc. 123:1262 (2001); Duan et al., Mol. Cancer Therapeutics 1:103 (2001)).

CCC1=C(C)c2cc3[nH]c(cc4nc(cc5c(CCC(=O)O)c(C)c(cc1n2)n5C)C(CCC(=O)O)=C4C)c(C)c3CC [NMM, N-methylmesoporphyrin IX]
interaction with ds DNA [1]: did not interact with ds DNA
interaction with double-stranded DNA [2]: did not interact appreciably with ds DNA
fluorescent signal / interaction with non-quadruplex nucleic acid QB-2 [3]: did not interact appreciably
interaction with single-stranded DNA [4]: interacted with ssDNA
fluorescent signal / interaction with quadruplex nucleic acid QB-1 [5]: interacted with quadruplex nucleic acid QB-1
stabilization of quadruplex structure ([5]; without the addition of potassium ions, FIG. 2A): could stabilize quadruplex structure without the addition of potassium ions

QB-23: 5′-CGCTTGATGAGTCAGCCGGAA-3′, SEQ ID NO 33, AP-1 (DNA, backbone and methylation of C not given here)
interaction with NMM (quadruplex forming profile) [6]: did not appreciably interact with NMM

QB-1: 5′-AGGGTGGGGAGGGTGGGGAA-3′, SEQ ID NO 17, c-MYC (DNA, backbone not given here)
capability of forming a quadruplex structure [6]: capable of forming a quadruplex structure

QB-9: 5′-GGGGTTTTGGGG-3′, SEQ ID NO 19, dimers for quadruplex of basket or crossover structure (DNA, backbone not given here)
capability of forming a quadruplex structure [6]: capable of forming a quadruplex structure

QB-20: 5′-GTGGTGGGTGGGTGGGT-3′, SEQ ID NO 30, T30177 (DNA, backbone not given here)
interaction with NMM (quadruplex forming profile) [6]: interacted most significantly

serinodisaphyrin
affinity of interaction with the quadruplex DNA (competition with NMM) [7]: intermediate affinity
identification as quadruplex interacting molecule [7]: identified as quadruplex interacting molecules

QB-25: 5′-CCTTCCCCACCCTCCCCACCCTCCCCA-3′, SEQ ID NO 35, c-MYC (DNA, backbone and methylation of C not given here)
interaction with NMM (quadruplex forming profile) [6]: did not appreciably interact with NMM

QB-10: 5′-GGTTGGTGTGGTTGG-3′, SEQ ID NO 20, intramolecular edge, or chair structure (DNA, backbone not given here)
capability of forming a quadruplex structure [6]: capable of forming a quadruplex structure

C[n+]1ccc(-c2c3nc(c(-c4cc[n+](C)cc4)c4ccc([nH]4)c(-c4cc[n+](C)cc4)c4nc(c(-c5cc[n+](C)cc5)c5ccc2[nH]5)C=C4)C=C3)cc1 [TMPyP4, meso-tetrakis(N-methyl-4-pyridyl)porphine]
interaction with ds DNA [1]: did interact with ds DNA
fluorescent signal / interaction with non-quadruplex nucleic acid QB-2 [3]: varied significantly
change of emitted signal with increasing quadruplex nucleic acid concentrations ([5]; 3 μM TMPyP4, FIG. 2B, likely due to quenching): decreased with increasing quadruplex nucleic acid concentrations
fluorescent signal / interaction with quadruplex nucleic acid QB-1 [5]: varied significantly
